Assay results: patent publication US11104660B2, “PDE4D inhibitors” (TETRA DISCOVERY PARTNERS, INC., priority 2019, dated 2021)
Like-named read-outs stand apart in the source and are kept apart here.

How the values were obtained:
PDE4D = test: PET imaging of 11C-labeled Compound A in non-human primate brain (VT, uptake); type: in vivo, cynomolgus non-human primates (Macaca fascicularis); conditions: for VT (volume of distribution): 90 min
Protocol: The regional distribution and pharmacokinetics of ^11C-labeled compounds as described herein were evaluated on non-human primates via PET imaging.
Two male non-naïve cynomolgus non-human primates (Macaca fascicularis) (“Subject 1” and “Subject 2”) were utilized in this study (7.0 and 5.5 kg). Subjects had previously undergone surgery for placement of arterial access ports for blood collection from the iliac artery. Each subject underwent a brain MR in a Philips 1.5T Intera scanner using a 3D T1 FFE sequence for subsequent registration with PET and application of a cynomolgus brain region of interest atlas for determination of regional time-activity curves. PET scans were conducted in each subject under baseline condition (i.e., Compound A, only) and 15 minutes after a 10 minute infusion of Compound B at 3 mg/kg (i.e. blocking condition). Compound B is a known PDE4D ligand, alternatively referred to as BPN14770.
PET scans were conducted with a Siemens Focus 220 microPET scanner. Subjects were anesthetized with ketamine 10 mg/kg IM approximately 45 minutes prior to Compound A injection. Atropine sulfate 0.05 mg/kg IM was administered approximately 35 minutes prior to Compound A injection. Subjects were intubated and maintained on isoflurane (2-2.5%) and oxygen (2 L/min). Indwelling catheters were placed in the saphenous veins for drug infusion, tracer injection and fluids (LRS 10 mL/kg/hr IV). Subjects were transported to the PET imaging bed, positioned, and monitored for body temperature, heart rate, expired CO2, respiration rate, and pulse O2.
(§1) A dynamic 90 (Subject 1) or 120 (Subject 2) minute PET scan acquisition was initiated at the start of Compound A injection, administered over 3 minutes via an infusion pump targeting an injected activity of 5 mCi. Relative to time of Compound A injection, arterial blood samples were collected in K2EDTA at −10, 0.75, 1.5, 2.25, 3, 4, 5, 10, 15, 30, 45, 60, 90 and 120 min. For each sample, an aliquot (200 uL) was gamma counted for radioactivity concentration determination, then processed to plasma. For −10, 5, 15, 30, 60, 90, 120 min plasma samples, radio HPLC was performed for determination of parent fraction of Compound A, and −10 min samples spiked with Compound A were used for stability analysis and determination of plasma free fraction. Aliquots (100 uL) of plasma samples collected at −10, 5, 15, 30, 60, 90, 120 min were frozen for subsequent determination of drug concentration levels.
At the conclusion of PET scan acquisition, an x-ray CT scan by an 8 slice NeuroLogica CereTom OTOscan of each Subject was collected of the head at 120 kVp, 4 mAs, slice thickness 0.625 mm and processed using filtered back projection. The CT scan was used for co-registration to PET for attenuation and scatter correction of the reconstructed PET scan. Listmode PET data were binned into 6×0.5 min, 3×1 min, 2×2 min and 22 ×5 min frames. Binned sinogram data were reconstructed by filtered backprojection.
Reconstructed PET images were analyzed using PMOD software. PET scans were transformed into MR template space via rigid PET-to-MR and affine+nonlinear MR-to-template registrations. Time-activity curves were generated from regions of interest (ROIs) defined on the MR template including the anterior cingulate, cerebellum, dorsolateral prefrontal cortex, entorhinal cortex, occipital cortex, striatum and thalamus. Peak uptake in the brain was between about 3.2% and 5.6% of the injected dose.
Volume of distribution (VT) (mL/cm^3) of Compound A was estimated with the 2-tissue compartment (2TC) model and Logan graphical analysis (LGA, t*=30), for baseline and blocking scans, using 90 min of data. VT at baseline and blocking in ROIs were used to compute occupancy of Compound B via the occupancy (Lassen) plot. Time stability of VT estimated from 2TC and LGA models were assessed for both animals from 90 min or 120 minutes of data for baseline and blocking scans.

[1] = Plasma free fraction of Compound A (spiked -10 min plasma samples); type: in vitro ADME, cynomolgus non-human primates (Macaca fascicularis); conditions: cynomolgus monkey, read-out: fp (%) Plasma free fraction
Protocol: as §1

Structure (SMILES): [2H]C([2H])(c1cn[nH]c1)c1ccc(O[11CH3])c(-c2cccc([N+](=O)[O-])c2)n1 [Compound A]
- VT (volume of distribution) (PDE4D; Anterior Cingulate, Subject 1, 2TC, baseline): 15.8 mL/cm^3
- VT (volume of distribution) (PDE4D; Anterior Cingulate, Subject 1, 2TC, blocking (Compound B 3 mg/kg)): 8.8 mL/cm^3
- VT (volume of distribution) (PDE4D; Anterior Cingulate, Subject 1, LGA, baseline): 13.8 mL/cm^3
- VT (volume of distribution) (PDE4D; Anterior Cingulate, Subject 1, LGA, blocking (Compound B 3 mg/kg)): 8.9 mL/cm^3
- VT (volume of distribution) (PDE4D; Anterior Cingulate, Subject 2, 2TC, baseline): 13.7 mL/cm^3
- VT (volume of distribution) (PDE4D; Anterior Cingulate, Subject 2, 2TC, blocking (Compound B 3 mg/kg)): 10.6 mL/cm^3
- VT (volume of distribution) (PDE4D; Anterior Cingulate, Subject 2, LGA, baseline): 14.6 mL/cm^3
- VT (volume of distribution) (PDE4D; Anterior Cingulate, Subject 2, LGA, blocking (Compound B 3 mg/kg)): 10.4 mL/cm^3
- VT (volume of distribution) (PDE4D; Cerebellum, Subject 1, 2TC, baseline): 11.5 mL/cm^3
- VT (volume of distribution) (PDE4D; Cerebellum, Subject 1, 2TC, blocking (Compound B 3 mg/kg)): 7.6 mL/cm^3
- VT (volume of distribution) (PDE4D; Cerebellum, Subject 1, LGA, baseline): 10.2 mL/cm^3
- VT (volume of distribution) (PDE4D; Cerebellum, Subject 1, LGA, blocking (Compound B 3 mg/kg)): 7.7 mL/cm^3
- VT (volume of distribution) (PDE4D; Cerebellum, Subject 2, 2TC, baseline): 8.6 mL/cm^3
- VT (volume of distribution) (PDE4D; Cerebellum, Subject 2, 2TC, blocking (Compound B 3 mg/kg)): 9.6 mL/cm^3
- VT (volume of distribution) (PDE4D; Cerebellum, Subject 2, LGA, baseline): 9.2 mL/cm^3
- VT (volume of distribution) (PDE4D; Cerebellum, Subject 2, LGA, blocking (Compound B 3 mg/kg)): 9.7 mL/cm^3
- VT (volume of distribution) (PDE4D; Dorsolateral Frontal Cortex, Subject 1, 2TC, baseline): 26.2 mL/cm^3
- VT (volume of distribution) (PDE4D; Dorsolateral Frontal Cortex, Subject 1, 2TC, blocking (Compound B 3 mg/kg)): 10.2 mL/cm^3
- VT (volume of distribution) (PDE4D; Dorsolateral Frontal Cortex, Subject 1, LGA, baseline): 22.9 mL/cm^3
- VT (volume of distribution) (PDE4D; Dorsolateral Frontal Cortex, Subject 1, LGA, blocking (Compound B 3 mg/kg)): 10.1 mL/cm^3
- VT (volume of distribution) (PDE4D; Dorsolateral Frontal Cortex, Subject 2, 2TC, baseline): 15.2 mL/cm^3
- VT (volume of distribution) (PDE4D; Dorsolateral Frontal Cortex, Subject 2, 2TC, blocking (Compound B 3 mg/kg)): 12.3 mL/cm^3
- VT (volume of distribution) (PDE4D; Dorsolateral Frontal Cortex, Subject 2, LGA, baseline): 15.5 mL/cm^3
- VT (volume of distribution) (PDE4D; Dorsolateral Frontal Cortex, Subject 2, LGA, blocking (Compound B 3 mg/kg)): 10.6 mL/cm^3
- VT (volume of distribution) (PDE4D; Enthorinal Cortex, Subject 1, 2TC, baseline): 14.6 mL/cm^3
- VT (volume of distribution) (PDE4D; Enthorinal Cortex, Subject 1, 2TC, blocking (Compound B 3 mg/kg)): 8.1 mL/cm^3
- VT (volume of distribution) (PDE4D; Enthorinal Cortex, Subject 1, LGA, baseline): 11.7 mL/cm^3
- VT (volume of distribution) (PDE4D; Enthorinal Cortex, Subject 1, LGA, blocking (Compound B 3 mg/kg)): 7.4 mL/cm^3
- VT (volume of distribution) (PDE4D; Enthorinal Cortex, Subject 2, 2TC, baseline): 10.8 mL/cm^3
- VT (volume of distribution) (PDE4D; Enthorinal Cortex, Subject 2, 2TC, blocking (Compound B 3 mg/kg)): 10.1 mL/cm^3
- VT (volume of distribution) (PDE4D; Enthorinal Cortex, Subject 2, LGA, baseline): 10.5 mL/cm^3
- VT (volume of distribution) (PDE4D; Enthorinal Cortex, Subject 2, LGA, blocking (Compound B 3 mg/kg)): 7.8 mL/cm^3
- VT (volume of distribution) (PDE4D; Hippocampus, Subject 1, 2TC, baseline): 30.3 mL/cm^3
- VT (volume of distribution) (PDE4D; Hippocampus, Subject 1, 2TC, blocking (Compound B 3 mg/kg)): 7.4 mL/cm^3
- VT (volume of distribution) (PDE4D; Hippocampus, Subject 1, LGA, baseline): 19.4 mL/cm^3
- VT (volume of distribution) (PDE4D; Hippocampus, Subject 1, LGA, blocking (Compound B 3 mg/kg)): 7.5 mL/cm^3
- VT (volume of distribution) (PDE4D; Hippocampus, Subject 2, 2TC, baseline): 19.8 mL/cm^3
- VT (volume of distribution) (PDE4D; Hippocampus, Subject 2, 2TC, blocking (Compound B 3 mg/kg)): 11.1 mL/cm^3
- VT (volume of distribution) (PDE4D; Hippocampus, Subject 2, LGA, baseline): 17.4 mL/cm^3
- VT (volume of distribution) (PDE4D; Hippocampus, Subject 2, LGA, blocking (Compound B 3 mg/kg)): 11.0 mL/cm^3
- VT (volume of distribution) (PDE4D; Occipital Cortex, Subject 1, 2TC, baseline): 17.8 mL/cm^3
- VT (volume of distribution) (PDE4D; Occipital Cortex, Subject 1, 2TC, blocking (Compound B 3 mg/kg)): 8.4 mL/cm^3
- VT (volume of distribution) (PDE4D; Occipital Cortex, Subject 1, LGA, baseline): 15.1 mL/cm^3
- VT (volume of distribution) (PDE4D; Occipital Cortex, Subject 1, LGA, blocking (Compound B 3 mg/kg)): 8.0 mL/cm^3
- VT (volume of distribution) (PDE4D; Occipital Cortex, Subject 2, 2TC, baseline): 12.9 mL/cm^3
- VT (volume of distribution) (PDE4D; Occipital Cortex, Subject 2, 2TC, blocking (Compound B 3 mg/kg)): 10.6 mL/cm^3
- VT (volume of distribution) (PDE4D; Occipital Cortex, Subject 2, LGA, baseline): 13.1 mL/cm^3
- VT (volume of distribution) (PDE4D; Occipital Cortex, Subject 2, LGA, blocking (Compound B 3 mg/kg)): 10.0 mL/cm^3
- Brain entry (PDE4D; PET image analysis): readily entered the brain
- Regional uptake (PDE4D; PET image analysis): consistent with the known distribution of Compound B
- VT (volume of distribution) (PDE4D; Striatum, Subject 1, 2TC, baseline): 14.9 mL/cm^3
- VT (volume of distribution) (PDE4D; Striatum, Subject 1, 2TC, blocking (Compound B 3 mg/kg)): 9.0 mL/cm^3
- VT (volume of distribution) (PDE4D; Striatum, Subject 1, LGA, baseline): 13.9 mL/cm^3
- VT (volume of distribution) (PDE4D; Striatum, Subject 1, LGA, blocking (Compound B 3 mg/kg)): 9.2 mL/cm^3
- VT (volume of distribution) (PDE4D; Striatum, Subject 2, 2TC, baseline): 13.2 mL/cm^3
- VT (volume of distribution) (PDE4D; Striatum, Subject 2, 2TC, blocking (Compound B 3 mg/kg)): 11.5 mL/cm^3
- VT (volume of distribution) (PDE4D; Striatum, Subject 2, LGA, baseline): 13.4 mL/cm^3
- VT (volume of distribution) (PDE4D; Striatum, Subject 2, LGA, blocking (Compound B 3 mg/kg)): 11.2 mL/cm^3
- VT (volume of distribution) (PDE4D; Thalamus, Subject 1, 2TC, baseline): 17.6 mL/cm^3
- VT (volume of distribution) (PDE4D; Thalamus, Subject 1, 2TC, blocking (Compound B 3 mg/kg)): 8.8 mL/cm^3
- VT (volume of distribution) (PDE4D; Thalamus, Subject 1, LGA, baseline): 15.7 mL/cm^3
- VT (volume of distribution) (PDE4D; Thalamus, Subject 1, LGA, blocking (Compound B 3 mg/kg)): 8.9 mL/cm^3
- VT (volume of distribution) (PDE4D; Thalamus, Subject 2, 2TC, baseline): 11.6 mL/cm^3
- VT (volume of distribution) (PDE4D; Thalamus, Subject 2, 2TC, blocking (Compound B 3 mg/kg)): 9.9 mL/cm^3
- VT (volume of distribution) (PDE4D; Thalamus, Subject 2, LGA, baseline): 12.1 mL/cm^3
- VT (volume of distribution) (PDE4D; Thalamus, Subject 2, LGA, blocking (Compound B 3 mg/kg)): 9.8 mL/cm^3
- Change of Compound A in regions of high uptake on blockage of PDE4D (PDE4D; high dose of Compound B): substantial reduction
- fraction unbound ([1]; Subject 1, baseline): 0.059
- fraction unbound ([1]; Subject 1, blocking (Compound B 3 mg/kg)): 0.059
- fraction unbound ([1]; Subject 2, baseline): 0.067
- fraction unbound ([1]; Subject 2, blocking (Compound B 3 mg/kg)): 0.047
